Measured values as given in the supplement of paper PMC8671470.

How the values were obtained:
Details in all cases: 72 h
KU-812 [1] = system: KU-812
Procedure, shortened: (§1)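 Fifteen myeloid leukaemia lines were incubated for 72 h at 37 °C with 5% CO2 across five tenfold doses from 1 to 10,000 nM, in duplicate. ATP luminescence was normalised to vehicle and to a positive control at 10 µM and fitted with a four-parameter log-logistic model. The IC50 came from these dose–response fits.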

Mono-Mac-6 [2] = system: Mono-Mac-6
Procedure, shortened: as §1

BV-173 [3] = system: BV-173
Procedure, shortened: as §1

HL-60 [4] = system: HL-60
Procedure, shortened: as §1

LAMA-84 [5] = system: LAMA-84
Procedure, shortened: as §1

HEL [6] = system: HEL
Procedure, shortened: as §1

KG-1 = system: KG-1
Procedure, shortened: as §1

MV4-11 = system: MV4-11
Procedure, shortened: as §1

SHI-1 [7] = system: SHI-1
Procedure, shortened: as §1

MOLM-13 = system: MOLM-13
Procedure, shortened: as §1

NOMO-1 [8] = system: NOMO-1
Procedure, shortened: as §1

ML-2 [9] = system: ML-2
Procedure, shortened: as §1

KCL-22 [10] = system: KCL-22
Procedure, shortened: as §1

THP-1 = system: THP-1
Procedure, shortened: as §1

K-562 [11] = system: K-562
Procedure, shortened: as §1

HL-60 [12] = assay: area under dose-response curve (viability, 1 nM-10 uM) (fraction (0-1)); higher = more sensitive
Procedure, shortened: (§2)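 For each screen, HL-60 cells in RPMI 1640 with 10% FBS carried either DMSO or 100 nM of one of three metabolic inhibitors while the full library was applied at five tenfold concentrations, 1–10,000 nM, in duplicate. Plates were 384-well and were kept 72 h at 37 °C, 5% CO2. Viability, measured by CellTiter-Glo, was normalised to wells with DMSO and with 10 μM proteasome inhibitor. Where area under the curve appears, it was fitted by four-parameter log-logistic models in drc and PharmacoGx.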

KU-812 [13] = assay: cell viability (% survival relative to DMSO control, bortezomib = 0%); higher = less cytotoxic
Procedure, shortened: (§3)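 Reported values are percent survival from duplicate wells, averaged. Fifteen myeloid leukaemia cell lines were treated in 384-well plates with compounds at 1, 10, 100, 1000 or 10000 nM for 72 h at 37 °C in 5% CO2. Signals from CellTiter-Glo luminescence were scaled with vehicle as 100% and a 10 µM positive control as 0%.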

Mono-Mac-6 [14] = assay: as above
Procedure, shortened: as §3

BV-173 [15] = assay: as above
Procedure, shortened: as §3

HL-60 [16] = assay: as above
Procedure, shortened: as §3

LAMA-84 [17] = assay: as above
Procedure, shortened: as §3

HEL [18] = assay: as above
Procedure, shortened: as §3

SHI-1 [19] = assay: as above
Procedure, shortened: as §3

NOMO-1 [20] = assay: as above
Procedure, shortened: as §3

ML-2 [21] = assay: as above
Procedure, shortened: as §3

KCL-22 [22] = assay: as above
Procedure, shortened: as §3

K-562 [23] = assay: as above
Procedure, shortened: as §3

HL-60 [24] = assay: cell viability (% survival relative to DMSO control); higher = less cytotoxic
Procedure, shortened: as §2

CC(C)c1onc(-c2c(Cl)cccc2Cl)c1COc1ccc(/C=C/c2cccc(C(=O)O)c2)c(Cl)c1 [GW4064]
Details	IC50 (cell viability) [µM]
BV-173 [3]	6.11
HEL [6]	> 10
HL-60 [4]	> 10
K-562 [11]	6.26
KCL-22 [10]	3.6
KG-1	8.29
KU-812 [1]	> 10
LAMA-84 [5]	4.27
ML-2 [9]	> 10
MOLM-13	2.34
MV4-11	1.6
Mono-Mac-6 [2]	> 10
NOMO-1 [8]	> 10
SHI-1 [7]	> 10
THP-1	> 10

Details	area under dose-response curve, co-treatment: AZD3965 100 nM	area under dose-response curve, co-treatment: DMSO vehicle	area under dose-response curve, co-treatment: pictilisib 100 nM	cell viability, 1 nM [%]	cell viability, 10 nM [%]	cell viability, 100 nM [%]	cell viability, 1000 nM [%]	cell viability, 10000 nM [%]
BV-173 [15]	–	–	–	111	96.2	92.3	87.7	37.4
HEL [18]	–	–	–	85.7	87.2	86.8	87	66.7
HL-60 [12]	< 0.0301	< 0.0301	< 0.0301	–	–	–	–	–
HL-60 [16]	–	–	–	115	93.8	89.7	109	51.5
K-562 [23]	–	–	–	109	107	105	90.9	49.4
KCL-22 [22]	–	–	–	91.5	93.8	96	85.6	31.7
KU-812 [13]	–	–	–	96.8	99.7	90.7	85.1	76
LAMA-84 [17]	–	–	–	105	103	94.2	85.3	43.4
ML-2 [21]	–	–	–	95.6	86.2	84	86.2	68.5
Mono-Mac-6 [14]	–	–	–	104	87.6	95.9	86.7	67.7
NOMO-1 [20]	–	–	–	102	99.3	94	95.8	89.5
SHI-1 [19]	–	–	–	110	99.3	101	95.9	53

cell viability [%], HL-60 [24]
Details	0.001 µM	0.01 µM	0.1 µM	1 µM	10 µM
co-treatment: AZD3965 100 nM	102	98.93	91	109	93.1
co-treatment: DMSO vehicle	99.99	99.3	101	99.9	99.6
co-treatment: GSK2194069 100 nM	99.3	98.9	97.7	90.85	75.5
co-treatment: pictilisib 100 nM	86.7	96.6	90.9	105	97.1
